Measured values from patent US20110091387A1, “METHODS AND COMPOSITIONS FOR REDUCING SKIN DAMAGE” (THE GENERAL HOSPITAL CORPORATION, priority 2007, published 2011).

Columns and labels:
[1] = tested on: RhoE; assay: Western blot of RhoE and p53 expression after kaempferol treatment; assay type: cell-based; conditions: FIG. 3; relative to p53 expression
From the text: FIG. 3 is a Western blot depicting RhoE and p53 expression following treatment with the indicated amounts of kaempferol.

[2] = tested on: UVB damaged mouse skin; assay: UVB damaged mouse skin treated topically (TUNEL, CPD, phospho-H2AX, RhoE staining); assay type: in vivo
Method: Next, it was investigated whether kaempferol has any protective effect and or DNA repair potential on UVB damaged mouse skin. The dorsal hair of 8-week-old, C57BL/6 mice was trimmed and fine hair was removed by application of a hair-remover, 2 days before UVB exposure. Restrained mice were UVB irradiated at 120 mJ/cm^2 and treated with 0.5 mM kaempferol in 50 μl DMSO or DMSO control. The skin was removed from euthanized mice at various times after UVB exposure, fixed immediately in 4% neutral buffered paraformaldehyde, embedded in OCT, and sectioned at 8-μm thickness. Apoptotic cells were detected in skin sections harvested 16 hours after exposure to UVB, by the terminal nucleotidyl transferase-mediated nick end labeling (TUNEL) assay (Roche Applied Science, Germany) according to the manufacturer's instructions. […] The levels of an activated form of H2AX (Ser139) that is known to be activated and bound at the sites of DNA damage in response to UVB damage were also measured by staining with Anti-Phospho-H2AX (Ser139) antibodies (Upstate Cell Signaling Solutions, New York).

[3] = tested on: RhoE promoter; assay: RhoE promoter luc2 luciferase reporter screen for inducers of RhoE expression; assay type: cell-based; conditions: luminescence at 24 hours
Method: To isolate compounds that can activate RhoE pathway in keratinocytes and protect against UVB exposure, a robust and sensitive chemical genetics approach was developed for the identification of small molecules that induce RhoE expression. Briefly, a reporter construct was created that included the RhoE promoter operatively linked to the luc2 luciferase reporter gene (FIG. 1A). Stable cell lines were produced that expressed the reporter construct, and the cells were plated in 384 well plates at ˜10,000 cells per well. The library test compounds were added to the plated cells at two replicates per compound, and the cells were incubated with the compounds for 24 hours. Luminescence was measured at 24 hours using a plate reader. The data were analyzed using Spotfire.

[4] = tested on: HaCaT human keratinocyte cells; assay: UVB-induced cell death in HaCaT keratinocytes; assay type: cell-based; conditions: 1 and 2.5 μM; UVB 30 mJ/cm^2; 24 hours later; FIG. 4
Method: To determine whether RhoE inducing compounds have the protective effect on the UVB damage-mediated cell death, kaempferol-treated (1 and 2.5 μM) HaCaT human keratinocyte cells were exposed to UVB (30 mJ/cm^2), and 24 hours later cell death rate was examined (FIG. 4).

SMILES: O=c1c(O)c(-c2ccc(O)cc2)oc2cc(O)cc(O)c12 [Kaempferol]
- RhoE expression (Western blot) [1]: able to activate RhoE expression in a p53-independent manner
- Apoptosis in epidermis (TUNEL) ([2]; 0.5 mM in 50 μl DMSO, UVB 120 mJ/cm^2, 16 hours after exposure, vs DMSO, FIG. 5): inhibited apoptosis induced by UVB damage in epidermis
- Cyclobutane pyrimidine dimer (CPD) formation in epidermis (TDM-2 staining) ([2]; 0.5 mM, UVB 120 mJ/cm^2, FIGS. 6A-6C): suppressed pyrimidine dimmer formation
- Levels of activated form of H2AX (Ser139) in skin ([2]; 0.5 mM, UVB 120 mJ/cm^2, FIGS. 7A-7C): significantly decreased
- RhoE expression in suprabasal area of epidermis ([2]; 0.5 mM, UVB exposure, FIG. 8): enhanced
- Composite Z value (induction of RhoE expression) ([3]; Table 1, two replicates per compound): 6.2959
- Composite Z ([3]; Table 2, two replicates): 6.2959
- UVB-induced cell death rate [4]: suppression of UVB-induced cell death
